# From patent US5250542A, “Peripherally selective piperidine carboxylate opioid antagonists” (Eli Lilly and Company, priority 1992, dated 1993)
# Counter-ions that a name gives are not always drawn. Like-named read-outs stand apart in the source and are kept apart here.
# Key:
# opioid receptor = biological target: T1, opioid receptor (Mus musculus, UniProt P42866); assay: mouse writhing analgesis test: block of morphine-induced analgesia; assay type: in vivo, CF-1 male mice; design: unit not given here; conditions: dose of antagonist that reduced the inhibition of writhing produced by 1.25 mg/kg morphine sulfate to 50%, subcutaneous, 20 min before acetic acid
# T1 construct: Five CF-1 male mice (Charles River, Portage, Mich.); from tissue; host or cells: living CF-1 male mice (in vivo test; endogenous receptor)
# Summary of the method: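 Male CF-1 mice (~20 g, fasted overnight, n=5) dosed subcutaneously 20 min before i.p. 0.6% acetic acid; writhes counted for 10 min starting 5 min post-injection. Antagonism measured as blockade of morphine-induced inhibition of writhing, percent versus vehicle controls; ED50 defined as 50% writhing inhibition.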
# [1] = biological target: T2, peripheral opioid receptors (Mus musculus, UniProt P42866); assay: precipitated diarrhea in morphine-maintained mice (peripheral opioid activity) and comparison with the writhing test; assay type: in vivo; design: ED50 (diarrhea): unit not given beside the values; conditions: for Ratio (AD50 mouse writhing test / ED50 mouse diarrhea test): higher ratio = greater relative antagonism of peripheral opioid receptors; for ED50 (diarrhea) / ED50: morphine-maintained mice, antagonist subcutaneous or oral, 30 min observation; for ED50 (diarrhea): 30 min; for ED50: mouse, 0.5 h
# T2 construct: Mice maintained (6 mice/cage) on 0.01M saccharin water with 1 g/1 morphine sulfate; from tissue; host or cells: living morphine-maintained mice (in vivo test; endogenous receptor)
# Summary of the method: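 Morphine-dependent mice (1 g/l morphine sulfate in drinking water ≥10 days, withdrawn 45 min before dosing) received antagonist subcutaneously or orally, 5 mice/dose. Diarrhea (and jumping) were scored over 30 min and doses lowered to find the diarrhea threshold. Peripheral selectivity was taken as writhing AD50 divided by diarrhea ED50.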
# mu receptor = biological target: T3, mu receptor (Rattus norvegicus, UniProt P33535); assay: opioid receptor binding assay, [3H] NAL (tritiated naloxone), mu receptor; design: species or system rat (Male Sprague Dawley), brain minus cerebellum; conditions: for inhibition at 0.01 µM / inhibition at 0.1 µM: 20 min
# T3 construct: rat whole brain minus cerebellum for mu was homogenized; from tissue; host or cells: brain of male Sprague Dawley rats, whole brain minus cerebellum, homogenate fraction
# Summary of the method: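 Displacement of [3H]naloxone was measured on rat whole brain minus cerebellum membranes, preincubated 20 min and incubated 20 min at 37° C, with filtration separating bound ligand. Ki was derived from IC50 and ligand KD. Percent displacement was also recorded at 10 nM and 100 nM test compound.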
# [2] = read-out: % displacement at 10 nM
# [3] = read-out: % displacement at 10 nM, 10 nM test compound, [3H] naloxone 0.5 nM
# [4] = read-out: % displacement at 100 nM, 100 nM test compound, [3H] naloxone 0.5 nM
# [5] = 10 nM test compound, [3H] naloxone 0.5 nM, read-out: % displacement at 10 nM
# [6] = 100 nM test compound, [3H] naloxone 0.5 nM, read-out: % displacement at 100 nM
# [7] = read-out: % displacement at 100 nM
# T3 sequence (P33535 whole entry): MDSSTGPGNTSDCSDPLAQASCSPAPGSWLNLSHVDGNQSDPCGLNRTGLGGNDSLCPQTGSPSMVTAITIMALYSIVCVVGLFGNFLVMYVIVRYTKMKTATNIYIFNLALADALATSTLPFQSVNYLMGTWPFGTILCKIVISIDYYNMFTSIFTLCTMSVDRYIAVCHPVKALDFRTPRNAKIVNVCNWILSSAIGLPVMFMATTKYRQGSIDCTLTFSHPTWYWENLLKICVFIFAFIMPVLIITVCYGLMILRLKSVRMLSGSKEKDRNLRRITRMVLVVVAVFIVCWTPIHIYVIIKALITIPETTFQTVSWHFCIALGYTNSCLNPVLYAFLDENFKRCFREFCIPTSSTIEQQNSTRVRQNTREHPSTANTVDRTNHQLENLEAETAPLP
# T1 sequence (P42866 whole entry): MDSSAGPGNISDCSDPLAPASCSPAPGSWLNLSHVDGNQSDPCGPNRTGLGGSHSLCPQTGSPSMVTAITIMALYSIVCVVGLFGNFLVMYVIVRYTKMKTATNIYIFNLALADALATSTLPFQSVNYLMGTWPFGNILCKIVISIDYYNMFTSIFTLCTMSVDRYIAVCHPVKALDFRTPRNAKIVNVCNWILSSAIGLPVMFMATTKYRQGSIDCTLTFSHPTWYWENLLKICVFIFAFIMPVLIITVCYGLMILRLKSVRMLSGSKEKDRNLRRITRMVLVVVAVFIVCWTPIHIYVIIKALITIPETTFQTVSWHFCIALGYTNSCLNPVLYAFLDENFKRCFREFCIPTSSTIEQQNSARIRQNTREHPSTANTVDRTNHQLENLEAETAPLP
# T2 sequence (P42866 whole entry): as above
SMILES,inhibition at 0.01 µM (mu receptor; [3]) [%],inhibition at 0.1 µM (mu receptor; [4]) [%],AD50 (opioid receptor),Ratio (AD50 mouse writhing test / ED50 mouse diarrhea test) [1],ED50 [1] [mg/kg],inhibition at 0.01 µM (mu receptor; [5]) [%],inhibition at 0.1 µM (mu receptor; [6]) [%],Ki (mu receptor) [nM],other results
"CC(C)COC(=O)CNC(=O)C(Cc1ccccc1)CN1CC[C@](C)(c2cccc(O)c2)[C@H](C)C1 (single isomer, unassigned) [Example 98D]",57,92,,,,,,,"AD50 (opioid receptor; listed as 98D**, 1.25 mg/kg): 15.3; AD50 (opioid receptor; listed as 98D*, 1.25 mg/kg): 2.9; Ratio (AD50 mouse writhing test / ED50 mouse diarrhea test) ([1]; listed as 98D*): 4; Ratio (AD50 mouse writhing test / ED50 mouse diarrhea test) ([1]; listed as 98D**): 255; ED50 (diarrhea) ([1]; listed as 98D**): 0.06; ED50 (diarrhea) ([1]; listed as 98D*): 0.76; % displacement at 100 nM (mu receptor): 96%; inhibition at 0.01 µM (mu receptor; [2]): 80%"
"CNC(=O)C(Cc1ccccc1)CN1CC[C@@](C)(c2cccc(OC)c2)[C@@H](C)C1 (single isomer, unassigned) [Example 80]",,,3.9,24,0.16,0,37,,
"CC(C)CNC(=O)CNC(=O)C(Cc1ccccc1)CN1CC[C@@](C)(c2cccc(O)c2)[C@@H](C)C1 (some centres unmarked) [Example 50, N-2-[(2-methylpropyl)amino]-2-oxo-ethyl]-3-[3,4-dimethyl-4-(3-hydroxyphenyl)-1-piperidinyl-2-phenylmethyl propanamide monohydrate hydrochloride]",94,100,14.3,26,0.54,,,1.2,
"CCOC(=O)CNC(=O)C(CC1CCCCC1)CN1CC[C@@](C)(c2cccc(O)c2)[C@@H](C)C1 (relative stereo) [Example 29, 2-[[3-[4-(3-hydroxyphenyl-3,4-dimethyl-1-piperidinyl]-2-cyclohexylmethyl-1-oxopropyl]amino]acetic acid ethyl estermonohydrochloride]",98,100,3.9,23,0.17,,,2.94,
"CCOC(=O)CNC(=O)CNC(=O)C(Cc1ccccc1)CN1CC[C@@](C)(c2cccc(O)c2)[C@@H](C)C1 (relative stereo) [Example 67, [[2-[2-[4-(3-hydroxyphenyl)-3,4-dimethyl-1-piperidinyl]methyl]-3-phenyl-1-oxopropyl]-amino]acetyl]amino]acetic acid ethyl ester monohydrochloride]",79,91,5.5,36,0.15,,,0.37,
"CNC(=O)CCCNC(=O)C(CC1CCCCC1)CN1CC[C@@](C)(c2cccc(O)c2)[C@@H](C)C1 (some centres unmarked) [Example 41, N-[4-(methylamino)-4-oxobutyl]-3-[4-(3-hydroxyphenyl)-3,4-dimethyl-1-piperidinyl]-2-cyclohexylmethylpropanamide monohydrochloride]",100,100,4.5,26,0.17,,,0.39,
"CCOC(=O)CNC(=O)C(CCN1CC[C@@](C)(c2cccc(O)c2)[C@@H](C)C1)c1ccccc1 (relative stereo) [Example 11, 2-[[4-4-(3-hydroxyphenyl)-3,4-dimethyl-1-piperidinyl]-1-oxo-2-phenylbutyl]amino]-acetic acid ethyl ester monohydrochloride]",81,89,2.4,141,0.017,,,0.3,
"CCCNC(=O)CNC(=O)C(Cc1ccccc1)CN1CC[C@@](C)(c2cccc(O)c2)[C@@H](C)C1 (some centres unmarked) [Example 49, N-2-propylamino-2-oxoethyl]-3-[4-(3-hydroxyphenyl)-3,4-dimethyl-1-piperidinyl]-2-phenylmethyl propanamide monohydrate hydrochloride]",98,100,6.08,61,0.1,,,0.54,
"CCOC(=O)CNC(=O)C(Cc1ccccc1)CN1CC[C@@](C)(c2cccc(OC)c2)[C@@H](C)C1 (single isomer, unassigned) [Example 81]",,,13.2,4,3.28,21,55,,
"CNC(=O)CCNC(=O)C(CCN1CC[C@@](C)(c2cccc(O)c2)[C@@H](C)C1)C1CCCCC1 (relative stereo) [Example 18, N-[3-(methylamino)-3-oxopropyl]-4-[4-(3-hydroxyphenyl)-3,4-dimethyl-1-piperidinyl]-2-cyclohexyl-butanamide monohydrochloride]",97,,> 40,> 888,0.045,,,0.43,
"C[C@H]1CN(CCC(C(=O)NCC(N)=O)C2CCCCC2)CC[C@@]1(C)c1cccc(O)c1 (relative stereo) [Example 20, N-(2-amino-2-oxoethyl)-4-[4-(3hydroxyphenyl)-3,4-dimethyl-1-piperidinyl]-2-cyclohexylbutanamide hydrochloride monohydrate]",98,100,32.1,802,0.004,,,0.78,
"COc1cccc([C@]2(C)CCN(CC(Cc3ccccc3)C(=O)O)C[C@@H]2C)c1 (single isomer, unassigned) [Example 79]",,,1.7,13,0.13,0,15,,
"C[C@@H]1CN(CC(Cc2ccccc2)C(=O)NCC(=O)O)CC[C@]1(C)c1cccc(O)c1 (single isomer, unassigned) [Example 98E]",,,6.2,62,0.1,,,,inhibition at 0.01 µM (mu receptor; [2]): 69%; inhibition at 0.1 µM (mu receptor; [7]): 87%
"C[C@H]1CN(CC(Cc2ccccc2)C(=O)NCC(=O)OCC2CCCCC2)CC[C@@]1(C)c1cccc(O)c1 (some centres unmarked) [Example 53, 2-[[2-(phenylmethyl)-1-oxo-3-[4-(3-hydroxyphenyl)-3,%-dimethyl-1-piperidinyl]propylamino]-ethanoic acid cyclohexylmethyl estermonohydrochloride]",,,> 40,> 23,1.7,2,11,,
"CCOC(=O)CCCNC(=O)C(CC1CCCCC1)CN1CC[C@@](C)(c2cccc(O)c2)[C@@H](C)C1 (some centres unmarked) [Example 39, 4-[[3-[3,4-dimethyl-4-(3-hydroxyphenyl)-1-piperidinyl]-2-(cyclohexhymethyl)-1-oxopropyl]-amino]butanoic acid ethyl ester monohydrochloride]",91,,11.9,18,0.66,,,3.75,inhibition at 0.1 µM (mu receptor; [7]): 98%
"C[C@H]1CN(CC(CC2CCCCC2)C(=O)NCCC(=O)OCc2ccccc2)CC[C@@]1(C)c1cccc(O)c1 (relative stereo) [Example 34, 3-[[2-(cyclohexylmethyl)-1-oxo-3-[4-(3-hydroxyphenyl)-3,4-dimethyl-1-piperidinyl]propyl]-amino]propanoic acid phenylmethyl ester monohydrochloride]",78,,15.1,84,0.18,,,36.6,inhibition at 0.1 µM (mu receptor; [7]): 97%
CNC(=O)COC(=O)CNC(=O)C(Cc1ccccc1)CN1CC[C@@](C)(c2cccc(O)c2)[C@@H](C)C1 (relative stereo) [Example 88],,,13.5,193,0.07,93,99,,
"CNC(=O)CNC(=O)C(Cc1ccccc1)CN1CC[C@@](C)(c2cccc(OC)c2)[C@@H](C)C1 (single isomer, unassigned) [Example 82]",,,.95,17,0.055,31,73,,
